In patent US20220000872A1, “METHOD OF ENHANCING IMMUNE-BASED THERAPY” (OncoTracker, Inc., priority 2018, published 2022):
“Also recorded” adds a separate entry of the source.

Columns and labels:
PD-L1 gene expression [1] = settings: MM patient; after 4 months of treatment vs before treatment; qPCR
Excerpt: (§1) A second sample of BMMCs was collected after treatment with ruxolitinib, methylprednisolone, and lenalidomide.

PD-L2 gene expression = settings: MM patient; after 4 months of treatment vs before treatment; qPCR
Excerpt: as §1

PD-L1 gene expression [2] = assay: PD-L1 gene expression (qPCR) in MM BMMCs co-cultured with THP-1 monocytes; format: cell-based, human; settings: BMMCs from MM patient #3041 co-cultured with THP-1 monocytes, RUX 1 μM, 48 hours
Method: MM patient #3041 bone marrow mononuclear cells were co-cultured with THP-1 monocytes with or without RUX (from […] to 10 μM) for 48 hours.
Next, we investigated the effects of ruxolitinib (RUX) on PD-L1 and PD-L2 gene expression in MM bone marrow mononuclear cells (BMMCs) co-cultured with THP-1 monocytes. THP-1 monocytes co-cultured with primary BMMCs from MM patient #3041 were grown in the presence or absence of RUX (1 μM).

[3] = tested on: Tumor cells from the LAGκ-1A human MM xenograft; assay: Annexin V apoptosis assay of LAGκ-1A myeloma tumor cells with or without IL-2 pre-treated T-cells; format: cell-based; settings: in the absence of T-cells
Method: T-cells (SUP-T1, ATCC) were pre-treated with IL-2 (20 ng/ml) for 24 hours. In the RUX at 1 μM with anti-PD-L1 group, the antibody concentrations were varied as indicated on the x-axis but the RUX was tested at a fixed concentration (1 μM). For the anti-PD-L1 at 5 mg/mL with RUX group, the RUX concentrations were varied as on the x-axis but the anti-PD-L1 antibody was evaluated at a fixed concentration (5 mg/mL). Tumor cells from the LAGκ-1A human MM xenograft were single-cell suspended and co-cultured with T cells treated with either RUX (1 μM) and anti-PD-L1 antibody or RUX alone for 72 hours. Tumor cell apoptosis was measured using the Annexin V assay per the manufacturer's protocol (Biovision) followed with flow cytometric analysis (FC-500 cytometer using Cytometric CXP software, both Beckman Coulter).
T-cells were pre-treated with IL-2 (20 ng/ml) for 24 hours. […] For the anti-PD-1 at 5 mg/mL with RUX group, the RUX concentrations were varied as on the x-axis but the anti-PD-1 antibody was evaluated at a fixed concentration (5 mg/mL). […] Tumor cell apoptosis was measured using the Annexin V assay per the manufacturer's protocol (Biovision) followed with flow cytometric analysis (FC-500 cytometer using Cytometric CXP software, both Beckman Coulter). […]

[4] = tested on: CD138+ myeloma tumor cells; assay: Annexin V apoptosis assay of CD138-selected primary myeloma cells co-cultured with IL-2-stimulated T-cells; format: cell-based, human; settings: CD138+ cells with IL-2-stimulated SUP-T1 T cells; 72 hours; RUX at varying concentrations; rose from approximately 35% up to this value, concentration dependent
Method: FIG. 10A depicts an apoptosis assay of fresh CD138-selected myeloma tumor cells combined with IL-2-stimulated T-cells (SUP-T1, ATCC) and treated with ruxolitinib (RUX) in vitro. T-cells were pre-treated with IL-2 (20 ng/ml) for 24 hours. Primary myeloma cells were CD138-selected using an immunoadsorption column and co-cultured with T cells with or without RUX at varying concentrations for 72 hours. Apoptosis in CD138+ cells was measured using the Annexin V assay per the manufacturer's protocol (Biovision) followed with flow cytometric analysis (FC-500 cytometer using Cytometrics CXP software, both Beckman Coulter). Minimal apoptosis was observed without T cells. Apoptosis occurred in a much higher proportion of myeloma tumor cells exposed to IL-2-stimulated T cells (FIG. 10A). RUX increased the fraction of cells that underwent apoptosis from approximately 35% up to about 65% in a concentration dependent fashion.

[5] = tested on: PD-L1 gene and protein expression; assay: PD-L1 gene and protein expression in MM tumor cells alone or co-cultured with stromal cells (Example 11); format: cell-based, human; settings: concentration dependent pattern
Method: (§2) BM mononuclear cells (MCs) and serum were collected from MM patients and healthy subjects after obtaining IRB approval. Single-cell suspensions were prepared from human MM LAGκ-1A xenografts which had been grown in the mice. The cells were cultured and treated with or without RUX and then were determined by qPCR, flow cytometric analysis, ELISA, and western blot.
(§3) We further investigated the effects of RUX on PD-L1 and PD-L2 expression in primary and stromal cells from MM patients' BM samples in vitro. […] We then determined whether RUX can augment the anti-MM effects of T-cells in vitro. […] To evaluate the efficacy of drugs in vivo, severe combined immune deficient mice implanted with the human MM xenograft LAGκ-2 were treated with RUX (30 mg/kg).

[6] = tested on: PD-L2 gene and protein expression; assay: PD-L2 gene and protein expression in MM tumor cells alone or co-cultured with stromal cells (Example 11); format: cell-based, human; settings: concentration dependent pattern
Method: as §2, §3

IL-2 gene expression = IL-2 gene expression in MMBM (Example 12); format: cell-based, human
Method: Bone marrow mononuclear cells (BMMCs) were collected from MM patients after obtaining IRB approval. Single-cell suspensions were prepared from human MM LAGλ-1A xenografts which had been grown in severe combined immunodeficient mice. HS-5 stromal and SUP-T1 T cells were purchased from ATCC. The cells were cultured and treated with or without RUX and then subjected to qRT-PCR, flow cytometric analysis, and western blot analysis. For qRT-PCR, total RNA was extracted and applied to cDNA synthesis, followed by qPCR. Gene expression was analyzed in MM BMMCs alone or co-cultured with stromal cells or T cells with or without Rux treatment (1 μM) in vitro.
Next, we tested whether B7-H3 blockade by Rux could potentially restore exhausted T cell activity against myeloma cells in MMBM.

## N#CC[C@H](C1CCCC1)n1cc(-c2ncnc3[nH]ccc23)cn1 [RUX, ruxolitinib]
PD-L1 gene expression [1]
  PD-L1 gene expression in BMMCs: down-regulates
PD-L2 gene expression
  PD-L2 gene expression in BMMCs: down-regulates
PD-L1 gene expression [2]
  PD-L1 gene expression in MM BMMCs: marked decrease; also recorded: inhibits
[3]
  apoptosis of LAGκ-1A cells, single-agent treatment: does not lead to significant apoptosis
[4]
  fraction of cells that underwent apoptosis: about 65%
[5]
  PD-L1 gene and protein expression in MM tumor cells: markedly reduced
[6]
  PD-L2 gene and protein expression in MM tumor cells: markedly reduced
IL-2 gene expression; SUP-T1
  IL-2 gene expression in BM cocultured with T cells: elevated
IL-2 gene expression; plasma cell percentage <30%
  IL-2 gene expression in MMBM with lower plasma percentages: increase
IL-2 gene expression; plasma cell percentage >70%
  increase of IL-2 gene expression in MMBM with higher plasma cell percentages: not
